One may read the Cmax as the highest concentration seen after dosing. By AUC is commonly meant concentration integrated over time. Low values mean low exposure, high ones high exposure. One may read the half-life as the time in which the quantity being followed falls by half. The low end stands for rapid decline, the high end for slow decline. One may read the AUC(0-inf) as total exposure, with the tail of the curve extrapolated. Higher therefore signals high exposure. What is called Tmax is the time at which the peak concentration occurs. As usually defined, the Papp A→B is how fast a substance crosses the layer from the apical side.

A short description of data set [1]: Cmax in DBA1 mouse brain at 5 mg/kg, po. The format is ADME, organism-based. Also noted: dose 5 mg/kg, route oral.
A short description of data set [2]: Toxicity in po dosed human N87 cell xenografted athymic mouse administered as qd for 5 days per week for 4 weeks. Format: organism-based, NCI-N87. The conditions noted are these: in vivo. (A xenograft is tissue or cells of one species grown in another, often human tumour cells in immunodeficient mice.)
Data set [3] is described as follows: Toxicity in po dosed mouse administered as a single dose. The note with it: in vivo. Format: organism-based.
Data set [4] can be described thus: AUC in CD-1 mouse at 25 mg/kg, po. Format: ADME, organism-based. On the set-up: dose 25 mg/kg, route oral. The conditions noted are these: plasma.
Data set [5] in a line: Half life in DBA1 mouse brain at 5 mg/kg, po. The format is ADME, organism-based. Also noted: dose 5 mg/kg, route oral.
A short description of data set [6]: Initial Cmax in CD-1 mouse at 25 mg/kg, po. The format is ADME, organism-based. Also noted: dose 25 mg/kg, route oral. The note with it: in vivo.
Data set [7] can be described thus: Intrinsic clearance in human liver microsomes. Format: ADME, Microsome. The conditions noted are these: read-out: CLH.
The nature of data set [8]: AUC (infinity) in DBA1 mouse plasma at 5 mg/kg, po. The format is ADME, organism-based. Also noted: dose 5 mg/kg, route oral, time infinity.
A short description of data set [9]: AUC (infinity) in DBA1 mouse spleen at 5 mg/kg, po. The format is ADME, organism-based. Also noted: dose 5 mg/kg, route oral, time infinity.
Data set [10] in a line: Cmax in DBA1 mouse lymph nodes at 5 mg/kg, po. Format: ADME, organism-based, Lymph node. Also noted: dose 5 mg/kg, route oral.
A short description of data set [11]: Tmax in DBA1 mouse lymph nodes at 5 mg/kg, po. The format is ADME, organism-based, Lymph node. Also noted: dose 5 mg/kg, route oral.
Data set [12] in a line: Intrinsic clearance in mouse liver microsomes. The format is ADME, Microsome. The note with it: read-out: CLH. Background: Liver microsomes are vesicles of endoplasmic reticulum, rich in cytochrome P450 enzymes.
Data set [13] in a line: Tmax in DBA1 mouse brain at 5 mg/kg, po. The format is ADME, organism-based. Also noted: dose 5 mg/kg, route oral.
Data set [14] is described as follows: AUC (infinity) in DBA1 mouse lymph nodes at 5 mg/kg, po. The format is ADME, organism-based, Lymph node. On the set-up: time infinity, dose 5 mg/kg, route oral.
The nature of data set [15]: AUC (infinity) in DBA1 mouse brain at 5 mg/kg, po. Format: ADME, organism-based. Also noted: dose 5 mg/kg, route oral, time infinity.
The nature of data set [16]: Half life in DBA1 mouse lymph nodes at 5 mg/kg, po. The format is ADME, organism-based, Lymph node. Also noted: dose 5 mg/kg, route oral.
Data set [17] can be described thus: Half life in CD-1 mouse at 25 mg/kg, po. On the set-up: dose 25 mg/kg, route oral. The conditions noted are these: in vivo. The format is ADME, organism-based.
Data set [18] relates to NCI-N87. The data set is described as follows: Drug uptake in human NCI-N87 cells xenografted in mouse at 6 to 12 mg/kg, po administered as a single dose at 6 to 24 hrs. Format: ADME, organism-based. Also noted: route oral. The note with it: in vivo.
Data set [19] has as its system Spleen. The data set is described as follows: Drug uptake in human NCI-N87 cell xenografted mouse spleen at 6 to 12 mg/kg, po administered as a single dose at 6 to 24 hrs. Format: ADME, organism-based. Also noted: route oral. The conditions noted are these: in vivo.
A short description of data set [20]: Intrinsic clearance in rat liver microsomes. The format is ADME, Microsome. The conditions noted are these: read-out: CLH.
Data set [21] can be described thus: Tmax in DBA1 mouse plasma at 5 mg/kg, po. Format: ADME, organism-based. Also noted: dose 5 mg/kg, route oral.
The nature of data set [22]: Cmax in DBA1 mouse plasma at 5 mg/kg, po. Format: ADME, organism-based. On the set-up: dose 5 mg/kg, route oral.
For data set [23], the system named is Serum. As to the kind of experiment: Drug uptake in human NCI-N87 cell xenografted mouse serum at 6 to 12 mg/kg, po administered as a single dose at 6 to 24 hrs. Also noted: route oral. The format is ADME, organism-based. The note with it: in vivo.
The subject of data set [24] is Brain. As to the kind of experiment: Drug uptake in human NCI-N87 cell xenografted mouse brain at 6 to 12 mg/kg, po administered as a single dose at 6 to 24 hrs. The format is ADME, organism-based. On the set-up: route oral. The note with it: in vivo.
Data set [25] can be described thus: Apparent permeability from apical to basolateral side of human Caco2 cells. The format is ADME, cell-based. The conditions noted are these: Caco-2. (In general: Caco-2 cells form a polarised layer with tight junctions and transporters.)
Data set [26] can be described thus: Cmax in DBA1 mouse spleen at 5 mg/kg, po. Also noted: dose 5 mg/kg, route oral. The format is ADME, organism-based.
Data set [27] concerns Mus musculus. As to the kind of experiment: Dose normalized AUC in CD-1 mouse at 25 mg/kg, po. Format: ADME, organism-based. Also noted: dose 25 mg/kg, route oral. The note with it: in vivo.
Data set [28] in a line: Tmax in CD-1 mouse at 25 mg/kg, po. Format: ADME, organism-based. On the set-up: dose 25 mg/kg, route oral. The conditions noted are these: in vivo.
A short description of data set [29]: Half life in DBA1 mouse spleen at 5 mg/kg, po. The format is ADME, organism-based. Also noted: dose 5 mg/kg, route oral.
Data set [30] in a line: Half life in DBA1 mouse plasma at 5 mg/kg, po. The format is ADME, organism-based. On the set-up: dose 5 mg/kg, route oral.
Data set [31] deals with Mus musculus. The data set is described as follows: Dose normalized AUC in CD-1 mouse at 100 mg/kg, po. The format is ADME, organism-based. On the set-up: dose 100 mg/kg, route oral. The note with it: in vivo.
The nature of data set [32]: Initial Cmax in CD-1 mouse at 100 mg/kg, po. The format is ADME, organism-based. Also noted: dose 100 mg/kg, route oral. The note with it: in vivo.
Data set [33] is described as follows: Tmax in CD-1 mouse at 100 mg/kg, po. Also noted: dose 100 mg/kg, route oral. Format: ADME, organism-based. The note with it: in vivo.
Data set [34] in a line: AUC in CD-1 mouse at 5 mg/kg, iv. The format is ADME, organism-based. On the set-up: dose 5 mg/kg, route intravenous. The note with it: plasma.
A short description of data set [35]: Half life in CD-1 mouse at 5 mg/kg, iv. Format: ADME, organism-based. The note with it: in vivo. Also noted: dose 5 mg/kg, route intravenous.
A short description of data set [36]: Initial Cmax in CD-1 mouse at 5 mg/kg, iv. The format is ADME, organism-based. Also noted: dose 5 mg/kg, route intravenous. The conditions noted are these: in vivo.
The test system of data set [37] is Mus musculus. As to the kind of experiment: Dose normalized AUC in CD-1 mouse at 5 mg/kg, iv. Format: ADME, organism-based. On the set-up: dose 5 mg/kg, route intravenous. The note with it: in vivo.

Take `COc1c(C)cnc(Cn2cc(C#CCC(C)(C)O)c3c(Cl)nc(N)nc32)c1C`: the Cmax was 1450 ng/mL in [1]; 1560 ng/mL in data set [6]; 2140 ng/mL in [10]; 835 ng/mL in [22]; 1890 ng/mL in data set [26]. In data set [2], the MTD at 4 weeks was found to be 10 mg/kg. This molecule had an MTD in data set [3] of 30 mg/kg. Moreover, in data set [4], the AUC worked out at 4420 ng·h/mL. Besides, the half-life was 2.1 h in data set [5]; 1.6 h in [16]; 1.5 h in [17]; 2 h in data set [29]; 1.2 h in data set [30]. Further, the results for the CLint scaled in data set [7], in [12] and in [20] were 119 mL/min/kg, 727 mL/min/kg and 276 mL/min/kg, respectively. The AUC(0-inf) was determined as 2120 ng·h/mL in [8], 8160 ng·h/mL in [9], 5190 ng·h/mL in [14] and 4710 ng·h/mL in data set [15]. Moreover, the Tmax in data set [11] was found to be 1 h; in data set [13], 0.5 h; in [21] it was 4.98 min; in data set [28], 0.5 h. Further, the Drug uptake entry in [18], in [19], in data set [23] and in data set [24] was “Active” in each case. Besides, the Papp A→B in data set [25] worked out at 34.7 ×10⁻⁶ cm/s. The same molecule displayed an AUC/dose in data set [27] of 177 ng·h/mL/mg/kg.
`COc1c(C)cnc(Cn2cnc3c(Cl)nc(N)nc32)c1C` [BIIB021] registered an AUC/dose in [31] of 48 ng·h/mL/mg/kg. Moreover, the Papp A→B in data set [25] stood at 20 ×10⁻⁶ cm/s. The Cmax in [32] stood at 10000 ng/mL. Besides, the time of peak concentration (Tmax) in [33] stood at 4.98 min.
Turning to `CCNC(=O)c1noc(-c2cc(C(C)C)c(O)cc2O)c1-c1ccc(CN2CCOCC2)cc1` [LUMINESPIB], in data set [34], the AUC was 2410 ng·h/mL. The CLint scaled was determined as 39 mL/min/kg in [7] and 219 mL/min/kg in data set [20]. The half-life in data set [35] is 6.6 h. The same molecule displayed a Cmax in data set [36] of 2180 ng/mL. Also, the Papp A→B in data set [25] was 1.9 ×10⁻⁶ cm/s. In data set [37], this molecule gave an AUC/dose of 481 ng·h/mL/mg/kg.
As to `CC1(C)CC(=O)c2c(C(F)(F)F)nn(-c3ccc(C(N)=O)c(N[C@H]4CC[C@H](O)CC4)c3)c2C1` [SNX-2112], the AUC in data set [4] worked out at 8520 ng·h/mL. In data set [6], this molecule displayed a Cmax of 1720 ng/mL. The figures for the CLint scaled in [7], in data set [12] and in data set [20] were 54 mL/min/kg, 301 mL/min/kg and 54 mL/min/kg, respectively. Also, in data set [17], the half-life was 2.9 h. Moreover, the apical-to-basolateral permeability (Papp A→B) in data set [25] came out at 1.1 ×10⁻⁶ cm/s. The molecule further registered an AUC/dose in data set [27] of 341 ng·h/mL/mg/kg. In addition, the Tmax in data set [28] stood at 1 h.
In turn, `C=CCNC1=C2C[C@@H](C)C[C@H](OC)[C@H](O)[C@@H](C)/C=C(\C)[C@H](OC(N)=O)[C@@H](OC)/C=C\C=C(/C)C(=O)NC(=CC1=O)C2=O` [TANESPIMYCIN] returned an MTD in data set [3] of 60 mg/kg.

The values are drawn from ChEMBL document CHEMBL2203093, “EC144 is a potent inhibitor of the heat shock protein 90” (J Med Chem, 2012).
